In assay [1] the target is T1, Drosophila sp. kinesin K401-BCCP-His6 (K401-biotin carboxyl carrier protein-His6) (Drosophila melanogaster, UniProt P17210).
T1 construct: motor domain, neck linker and part of the coiled coil) of kinesin-1 heavy chain fused to biotin carboxyl carrier protein (BCCP, from E. coli in the known construct) and a His6 tag; microtubules and ATP present
Kind of assay: Michaelis-Menten kinetics of kinesin on poly(OH-EDOT) surface from microtubule gliding speeds at varied ATP concentration. It is filed as biochemical. From the text:
The protein ensemble (streptavidin, BSA, Drosophila kinesin K401-biotin carboxyl carrier protein (BCCP)-His6 and MTs) was deposited onto the conducting polymer surface (initially doped) using standard flow or droplet deposition methods. Flow cells were assembled using double-sided tape as a spacer creating a channel of approximate dimensions 5 mm×10 mm×0.04 mm. For the non-electrochemical assays, the poly(OH-EDOT)/PET substrate was placed on a glass slide with the conducting polymer layer down. The proteins were introduced using the standard capillary-flow technique. The buffer for all experiments was BRB80 (80 mM Pipes, 2 mM MgCl2, 1 mM EGTA, pH 6.95 with KOH). The flow cells were sequentially filled with a streptavidin solution (Streptomyces avidinii, Sigma-Aldrich, 1.0 mg/mL in BRB80, 10 min deposition time), BSA solution (Sigma-Aldrich, 1.0 mg/mL in BRB80, 10 min deposition time), standard kinesin solution (40 μg/mL kinesin K401-BCCP-His6 with 1 mM ATP in BRB80, 10 min deposition time), and finally a motility buffer with rhodamine-labeled microtubules (1-10 μm in length), containing 1 mM ATP and stabilized with 10 μM Taxol with oxygen scavenging additives (20 mM D-glucose, 20 μg/mL glucose oxidase, 8 μg/mL catalase, 0.2% 2-mercaptoethanol). Flow cells were sealed with immersion oil to prevent evaporation. The assays were performed at room temperature (21° C.).
It has recently been well established that as kinesin hydrolyzes a single ATP molecule, it induces an eight-nanometer movement of a microtubule. Therefore enzyme activity can be indirectly assayed by simply determining the average speed of a large population of microtubules. This was done using fluorescently-labeled microtubules, and their gliding speeds were then carefully measured using confocal microscopy. Microtubules were visualized on the conducting polymer using an Olympus Opelco BX51 fluorescence microscope and their speeds quantified using Metamorph image analysis software (Universal Imaging, Downingtown, Pa.). This assay method was then combined with a transparent electrochemical cell containing a poly(OH-EDOT) support. The poly(OH-EDOT) was ˜80% transparent in the visible range, allowing the microtubules to be easily seen and their speeds measured. […] The surface was then electrochemically doped by applying a bias of […] for 1 minute. The average microtubule speed was measured and found to be 0.40 μm/sec. The resulting ratio in speed differences (dedoped vs. doped surfaces) is 1.55, a striking exact correlation with the ATP hydrolysis ratios on the two surfaces. The surface was then cycled between the two states once more to give an overall cycling history of −1.0 V, +1.0 V, −1.0 V, +1.0 V with corresponding polymer states dedoped, doped, dedoped, doped (FIG. 3). For the second doping cycle the microtubule speeds were 0.63 (dedoped) and 0.40 (doped), giving a speed difference ratio of […].
At this point it was clear that the polymer surface was exerting a direct, reversible effect on the kinesin protein itself. The nature of this influence was examined by treating the charged species in the doped polymer form (the radical cation, or polaron) as an inhibitor, and quantified the enzyme kinetics in terms of Michaelis-Menten parameters. First, the surface concentration of the polarons was calculated using the established value of one polaron per four polymer repeat units for fully doped thiophene-type polymers. […] If one then encloses a kinesin molecule in a cube 30 nm per side and considers the polarons on the 30 nm×30 nm surface region to be distributed in the cube volume, an apparent local polaron concentration ([Iapp]) of 3.89 mM is obtained.
The Michaelis-Menten analysis assumes a kinetic model of the type shown in FIG. 5 (E=enzyme, ES=enzyme-substrate complex, P=product, kcat=catalytic turnover rate constant, Dstep=8 nm, Km=Michaelis constant). The kinetics of most enzymes, including kinesin, is accurately described with this model. […]

Assay [2] has as its target kinesin. The following applies: comparison value, source not given; read-out: inhibition constant Ki (other inhibitors); cited from earlier work.
Where [3] appears, read: substrate ATP, doped vs dedoped surface.

The source of these data is patent US8709740B2, “Control of protein activity using a conducting polymer” (The United States of America, as represented by the …, priority 2005, dated 2014).

T1 sequence (P17210 1-401): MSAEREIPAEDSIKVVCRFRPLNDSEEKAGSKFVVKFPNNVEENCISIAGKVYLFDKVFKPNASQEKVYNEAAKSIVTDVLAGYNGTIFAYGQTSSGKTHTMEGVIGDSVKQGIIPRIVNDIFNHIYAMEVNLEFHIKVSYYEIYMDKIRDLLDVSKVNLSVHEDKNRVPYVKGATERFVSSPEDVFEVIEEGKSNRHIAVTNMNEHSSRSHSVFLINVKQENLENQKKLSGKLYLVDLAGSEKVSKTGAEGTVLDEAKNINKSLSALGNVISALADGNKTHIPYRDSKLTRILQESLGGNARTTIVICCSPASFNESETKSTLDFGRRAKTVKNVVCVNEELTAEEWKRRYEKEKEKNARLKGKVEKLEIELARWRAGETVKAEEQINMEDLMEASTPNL

Regarding `Nc1ncnc2c1ncn2[C@@H]1O[C@H](COP(=O)(O)OP(=O)(O)OP(=O)(O)O)[C@@H](O)[C@H]1O` [ATP, adenosine triphosphate], the Speedmax dedoped in assay [1] (dedoped poly(OH-EDOT) surface, microtubule speed at infinite ATP concentration, 21° C., BRB80 pH 6.95) is listed as 0.943 μm/s ± 0.05. Further, in assay [1] (doped poly(OH-EDOT) surface, microtubule speed at infinite ATP concentration, 21° C., BRB80 pH 6.95), the Speedmax doped is 0.600 μm/s ± 0.03. The kcat dedoped in assay [1] (substrate ATP, dedoped poly(OH-EDOT) surface, 8 nm step per ATP hydrolyzed) is 118 sec^−1 ± 6. In assay [1] (substrate ATP, doped poly(OH-EDOT) surface, 8 nm step per ATP hydrolyzed), the kcat doped is 75.0 sec^−1 ± 3. Further, in assay [1] (setting [3]), the “Km app doped lower than Km dedoped” value was “ca. 35%” and the “kcat doped lower than kcat dedoped” value is given as “ca. 36%”.

On to `Nc1ncnc2c1ncn2[C@@H]1O[C@H](COP(=O)(O)OP(=O)(O)O)[C@@H](O)[C@H]1O` [ADP, adenosine diphosphate], for which the Ki (as a rule, a measure of affinity in units of concentration, obtained from inhibition or displacement) in assay [2] was 0.048 mM.

Turning to `O=P(O)(O)O` [PO4^2−], the Ki in assay [2] is 9.3 mM.
